Test system: cGVHD symptom burden
Assay: Example 1: Lee Symptom Scale (LSS) score
Assay type: in vivo, human
Method: Lee Symptom Scale (LSS) summary score measures the effect on patients' functioning and well-being. The Lee Symptom Scale is a 30-item scale developed to measure the symptoms of cGVHD and is described in Lec S J, Cook E F, Soiffer R, Antin J H. Development and validation of a scale to measure symptoms of chronic graft-versushost disease. Biol Blood Marrow Transplant 2002; 8:444-452.
All responses were assessed by the investigators.
Change From Baseline in Overall Score on Lee cGvHD Symptom Scale at Specified Time Points. Lee cGVHD symptom scale, a patient-reported symptom scale used to measure symptom burden and has 7 subscales (Skin, Eyes and Mouth, Breathing, Eating and Digestion, Muscles and Joints, Energy, and Mental and Emotional) with ratings as follows: 0—Not at all, 1—Slightly, 2—Moderately, 3—Quite a bit, 4—Extremely, with lower values representing better outcome. Score for each subscale was normalized to a score ranged from 0 to 100, where higher score=worse symptoms. An overall score was calculated as average of these 7 subscales. EOT visit was performed within 3 days after the participant's last dose of study drug. Baseline value was defined as valid and last non-missing value obtained within 28 days prior to participant receiving first study medication. […] Analysis was performed on mITT population. Here, ‘number analyzed’=participants with available data for each specified category. Here, ‘0’ in the number analyzed field signifies that none of the participants were available for the analysis at the specified time points.

For CC(C)NC(=O)COc1cccc(-c2nc(Nc3ccc4[nH]ncc4c3)c3ccccc3n2)c1 [Belumosudil, 2-{3-[4-(1H-indazol-5-ylamino)-2-quinazolinyl]phenoxy}-N-(propan-2-yl) acetamide], the “LSS improvement, nonresponder, n/N” value (Cohort 1 200 mg QD) was 1/6, the “LSS improvement, responder, n/N” value (Cohort 1 200 mg QD) was 8/11 and the “Change From Baseline in Overall Score on Lee cGvHD Symptom Scale, Mean (Standard Deviation)” value (from here on “Change From Baseline … (Standard Deviation)”) (Cohort 1: 200 mg QD, Cycle 3, Day 1) was −3.0 (8.5) score on a scale. For the same compound, the “Change From Baseline … (Standard Deviation)” value (Cohort 1: 200 mg QD, Cycle 5, Day 1) was −3.7 (11.0) score on a scale, the “Change From Baseline … (Standard Deviation)” value (Cohort 1: 200 mg QD, Cycle 7, Day 1) was −4.9 (8.4) score on a scale and the “Change From Baseline … (Standard Deviation)” value (Cohort 1: 200 mg QD, Cycle 9, Day 1) was −3.7 (10.7) score on a scale. For the same compound, the “Change From Baseline … (Standard Deviation)” value (Cohort 1: 200 mg QD, Cycle 11, Day 1) was −3.4 (11.5) score on a scale, the “Change From Baseline … (Standard Deviation)” value (Cohort 1: 200 mg QD, Cycle 12, Day 1) was −3.9 (8.1) score on a scale and the “Change From Baseline … (Standard Deviation)” value (Cohort 1: 200 mg QD, Cycle 13, Day 1) was −5.8 (14.7) score on a scale. The “Change From Baseline … (Standard Deviation)” value (Cohort 1: 200 mg QD, Cycle 14, Day 1) was −1.6 (17.1) score on a scale, the “Change From Baseline … (Standard Deviation)” value (Cohort 1: 200 mg QD, Cycle 15, Day 1) was −4.8 (15.8) score on a scale and the “Change From Baseline … (Standard Deviation)” value (Cohort 1: 200 mg QD, Cycle 16, Day 1) was −4.6 (16.1) score on a scale. For the same compound, the “Change From Baseline … (Standard Deviation)” value (Cohort 1: 200 mg QD, Cycle 27, Day 1) was −3.5 (25.3) score on a scale, the “Change From Baseline … (Standard Deviation)” value (Cohort 1: 200 mg QD, Cycle 28, Day 1) was 4.4 (13.4) score on a scale and the “Change From Baseline … (Standard Deviation)” value (Cohort 1: 200 mg QD, Cycle 29, Day 1) was −2.8 (23.7) score on a scale. For the same compound, the “Change From Baseline … (Standard Deviation)” value (Cohort 1: 200 mg QD, Cycle 30, Day 1) was 9.0 (7.5) score on a scale, the “Change From Baseline … (Standard Deviation)” value (Cohort 1: 200 mg QD, Cycle 31, Day 1) was −4.8 (27.9) score on a scale and the “Change From Baseline … (Standard Deviation)” value (Cohort 1: 200 mg QD, Cycle 32, Day 1) was 10.3 (6.9) score on a scale. The “Change From Baseline … (Standard Deviation)” value (Cohort 1: 200 mg QD, Cycle 33, Day 1) was 0.5 (20.7) score on a scale, the “Change From Baseline … (Standard Deviation)” value (Cohort 1: 200 mg QD, Cycle 34, Day 1) was 13.5 (3.6) score on a scale and the “Change From Baseline … (Standard Deviation)” value (Cohort 1: 200 mg QD, Cycle 35, Day 1) was −2.5 (23.3) score on a scale. The “Change From Baseline … (Standard Deviation)” value (Cohort 1: 200 mg QD, Cycle 36, Day 1) was 7.5 (6.4) score on a scale, the “Change From Baseline … (Standard Deviation)” value (Cohort 1: 200 mg QD, Cycle 37, Day 1) was −5.3 (29.0) score on a scale and the “Change From Baseline … (Standard Deviation)” value (Cohort 1: 200 mg QD, Cycle 38, Day 1) was 9.1 (5.2) score on a scale. The “Change From Baseline … (Standard Deviation)” value (Cohort 1: 200 mg QD, Cycle 39, Day 1) was −6.2 (25.9) score on a scale, the “Change From Baseline … (Standard Deviation)” value (Cohort 1: 200 mg QD, Cycle 40, Day 1) was 2.7 (—) score on a scale and the “Change From Baseline … (Standard Deviation)” value (Cohort 1: 200 mg QD, Cycle 41, Day 1) was −25.7 (—) score on a scale. The “Change From Baseline … (Standard Deviation)” value (Cohort 1: 200 mg QD, Cycle 42, Day 1) was 4.6 (—) score on a scale, the “Change From Baseline … (Standard Deviation)” value (Cohort 1: 200 mg QD, Cycle 43, Day 1) was −20.4 (—) score on a scale and the “Change From Baseline … (Standard Deviation)” value (Cohort 1: 200 mg QD, Cycle 44, Day 1) was 4.3 (—) score on a scale. For the same compound, the “Change From Baseline … (Standard Deviation)” value (Cohort 1: 200 mg QD, Cycle 46, Day 1) was 4.6 (—) score on a scale, the “Change From Baseline … (Standard Deviation)” value (Cohort 1: 200 mg QD, Cycle 47, Day 1) was −6.8 (—) score on a scale and the “Change From Baseline … (Standard Deviation)” value (Cohort 1: 200 mg QD, Cycle 48, Day 1) was 2.4 (—) score on a scale. The “Change From Baseline … (Standard Deviation)” value (Cohort 1: 200 mg QD, Cycle 50, Day 1) was 4.5 (—) score on a scale, the “Change From Baseline … (Standard Deviation)” value (Cohort 1: 200 mg QD, Cycle 51, Day 1) was −12.0 (—) score on a scale and the “Change From Baseline … (Standard Deviation)” value (Cohort 1: 200 mg QD, Cycle 52, Day 1) was 6.0 (—) score on a scale. The “Change From Baseline … (Standard Deviation)” value (Cohort 1: 200 mg QD, Cycle 53, Day 1) was −19.2 (—) score on a scale, the “Change From Baseline … (Standard Deviation)” value (Cohort 1: 200 mg QD, Cycle 54, Day 1) was 4.9 (—) score on a scale and the “Change From Baseline … (Standard Deviation)” value (Cohort 1: 200 mg QD, Cycle 55, Day 1) was −16.8 (—) score on a scale. For the same compound, the “Change From Baseline … (Standard Deviation)” value (Cohort 1: 200 mg QD, Cycle 56, Day 1) was 1.8 (—) score on a scale, the “Change From Baseline … (Standard Deviation)” value (Cohort 1: 200 mg QD, Cycle 57, Day 1) was −17.6 (—) score on a scale and the “Change From Baseline … (Standard Deviation)” value (Cohort 1: 200 mg QD, Cycle 58, Day 1) was 5.4 (—) score on a scale. For the same compound, the “Change From Baseline … (Standard Deviation)” value (Cohort 1: 200 mg QD, Cycle 59, Day 1) was −12.7 (—) score on a scale, the “Change From Baseline … (Standard Deviation)” value (Cohort 1: 200 mg QD, Cycle 60, Day 1) was 4.2 (—) score on a scale and the “Change From Baseline … (Standard Deviation)” value (Cohort 1: 200 mg QD, Cycle 61, Day 1) was −19.3 (—) score on a scale. For the same compound, the “Change From Baseline … (Standard Deviation)” value (Cohort 1: 200 mg QD, Cycle 62, Day 1) was 4.4 (—) score on a scale, the “Change From Baseline … (Standard Deviation)” value (Cohort 1: 200 mg QD, Cycle 63, Day 1) was −18.0 (—) score on a scale and the “Change From Baseline … (Standard Deviation)” value (Cohort 1: 200 mg QD, Cycle 67, Day 1) was −21.9 (—) score on a scale. The “Change From Baseline … (Standard Deviation)” value (Cohort 1: 200 mg QD, EOT) was −4.3 (11.7) score on a scale, the “LSS improvement, nonresponder, n/N” value (Cohort 2 200 mg BID) was 4/5 and the “LSS improvement, responder, n/N” value (Cohort 2 200 mg BID) was 3/11. For the same compound, the “Change From Baseline … (Standard Deviation)” value (Cohort 2: 200 mg BID, Cycle 3, Day 1) was 0.5 (7.3) score on a scale, the “Change From Baseline … (Standard Deviation)” value (Cohort 2: 200 mg BID, Cycle 5, Day 1) was −3.7 (7.0) score on a scale and the “Change From Baseline … (Standard Deviation)” value (Cohort 2: 200 mg BID, Cycle 7, Day 1) was −2.2 (8.8) score on a scale. For the same compound, the “Change From Baseline … (Standard Deviation)” value (Cohort 2: 200 mg BID, Cycle 8, Day 1) was −7.1 (10.1) score on a scale.

From patent US20260027116A1, “Methods of Treating Chronic Graft-Versus-Host Disease Following Allogeneic Hematopoietic Stem Cell Transplantation” (Kadmon Corporation, LLC, priority 2022, published 2026)
